Test results published in PMC12563652 (International Journal of Molecular Sciences, 2025).
Entries after “also recorded” stand apart in the source; their conditions may differ.

Legend:
3T3-L1 adipocytes [1] = experiment: Steatosis, HCS LipidTOX imaging in 3T3-L1 adipocytes; assay type: cell-based, mouse
Method: (§1) The 3T3-L1 mouse embryonic fibroblast cell line (ATCC CRL-11605) was cultured according to the standard protocol in Dulbecco’s Modified Eagle Medium (DMEM) supplemented with 10% bovine calf serum, 100 µg/mL streptomycin, and 100 IU/mL penicillin, at 37 °C in a humidified atmosphere containing 5% CO2. Cells were seeded at a density of 10,000 cells/well in collagen type I–coated (10 µg/mL) 96-well plates and allowed to attach for 24 h. Differentiation was initiated by replacing the medium with induction medium composed of DMEM, 0.5 mM 3-isobutyl-1-methylxanthine (IBMX), 1 µM dexamethasone, and 10% fetal bovine serum (FBS). After 48 h (differentiation day 2), the medium was replaced with DMEM supplemented with 10% FBS and 10 µg/mL human recombinant insulin. After an additional 24 h, the medium was replaced with DMEM supplemented with 10% bovine calf serum, 100 µg/mL streptomycin, and 100 IU/mL penicillin. The medium was refreshed every 24 h for 10 consecutive days to allow full differentiation into adipocytes.
(§2) Lipid accumulation and phospholipidosis were evaluated using the HCS LipidTOX Phospholipidosis and Steatosis Detection Kit (Thermo Fisher Scientific). Cells were cultured in black, clear-bottom 96-well plates and treated as described. Next, cells were fixed with 4% paraformaldehyde (15 min), washed with PBS, and stained with LipidTOX Green Neutral Lipid Stain (for steatosis) and LipidTOX Red Phospholipidosis Detection Reagent, prepared according to the manufacturer’s instructions. Nuclei were counterstained with Hoechst 33342 (2 µg/mL). Image acquisition and quantitative analysis were performed using High Content Screening (HCS) technology on the ImageXpress XLS system (Molecular Devices). Lipid droplet and phospholipid content were quantified using automated image analysis pipelines.

3T3-L1 adipocytes [2] = experiment: Phospholipidosis, HCS LipidTOX imaging in 3T3-L1 adipocytes; assay type: cell-based, mouse
Method: as §1, §2

C57BL/6 mice = experiment: Inhibition of gastric emptying (mouse model, phenol red); assay type: in vivo
Method: Fifty male C57BL/6 mice (22–27 g) were housed in standard cages while maintaining a 12:12-h light/dark cycle, with food and water available ad libitum. The experimental procedures were performed from 10:00 a.m. to 14:00 p.m.
The experiment was conducted according to Miyasaka et al. and Kotańska et al., with some minor modifications. Mice were subjected to a 20 h food deprivation and a 2 h water deprivation prior to testing. The animals received a vehicle (0.25 mL/mouse) alone or along with various compounds: JP-14 (10 mg/kg b. w.), RT (5 mg/kg body weight), metformin (100 mg/kg b. w.), or loperamide (reference compound; 10 mg/kg b. w.) via gastric gavage. Following a 45 min interval, phenol red (0.5 mL, 0.05% w/v) combined with glucose (1 g/kg body weight) was administered through the same route. Additionally, each group received an intraperitoneal injection of heparin (2500 U/mouse) 20 min prior to the collection of stomach contents. Seven mice treated with the vehicle were sacrificed immediately after the phenol red administration to serve as a standard control (representing 100% phenol red in the stomach at 0 min), establishing a baseline for maximum absorbance (100%). The leftover mice were sacrificed 30 min later. The stomachs were removed and homogenized using an OMNI homogenizer (OMNI International Company, Kennesaw, GA, USA), with 10 mL of 0.1 N NaOH. To 5 mL of homogenate, 0.5 mL of 20% w/v solution of trichloroacetic acid was incorporated to precipitate the proteins. Subsequently, the samples were centrifuged at 600× g for 15 min at a temperature of 20 °C, and 0.25 mL of supernatant was mixed with 1 mL of 0.5 N NaOH to achieve maximum color intensity. The concentration of phenol red was measured using spectrophotometry, with absorbance evaluated at a wavelength of 560 nm (MuLTISKAN.GO, Thermo Fisher Scientific Inc., Waltham, MA USA). For each mouse, the percentage of gastric emptying (GE %) was calculated using the following equation:(1) GE%=(Ac0−Ab)/(Ac0−Ac30)×100% where: Ac0 is the absorbance of the control gastric sample collected immediately after dye administration, and Ac30 is the absorbance of the control gastric sample collected 30 min after dye administration, i.e., Ac0–Ac30 = 100% gastric emptying.

HEPG2 cell line = experiment: Cell viability assay (PrestoBlue, metabolic function), HepG2; assay type: cell-based, human; details: 24 h, mean
Method: Prior to investigating the biological activity and molecular characteristics of the test compounds in vitro, a comprehensive cytotoxicity screening was performed using HepG2 and 3T3-L1 cell lines. Two complementary assays were applied: one based on the quantification of adenylate kinase release as an indicator of cell membrane damage, and another relying on resazurin reduction to assess cellular metabolic activity. These complementary assays enable sensitive and reliable detection of cytotoxic effects across diverse cell types. This preliminary assessment was carried out to ensure that subsequent functional analyses would not be confounded by nonspecific cytotoxic effects.
Cell viability was measured using PrestoBlue reagent (Thermo Fisher Scientific, Waltham, MA, USA), following the manufacturer’s instructions. After 24 h of compound treatment, PrestoBlue reagent was added to each well at 10% of the remaining medium volume. The plate was incubated at 37 °C for 15 min, and fluorescence was measured using the POLARstar Omega plate reader (excitation 530 nm, emission 580 nm). Results were expressed as a percentage of viable cells relative to the DMSO-treated control.

[3] = test system: platelet aggregation in rat whole blood; experiment: In vitro collagen-induced platelet aggregation in rat whole blood (impedance aggregometry); assay type: cell-based; details: 50–200 µM, collagen 1.6 µg/mL
Method: In vitro platelet aggregation assays were conducted using freshly collected whole blood from rats, utilizing the Multiplate platelet function analyzer (Roche Diagnostics, Mannheim, Germany)—a five-channel device that measures electrical impedance, following methods described previously. Upon stimulation, platelets adhere to and aggregate on dual metal sensors within the test cuvette, causing an increase in electrical resistance, which corresponds to the number of platelets attached to the electrodes.
Blood was collected from the carotid artery of the rat into tubes coated with hirudin (S-Monovette, Sarstedt, Germany). A volume of 300 μL of the anticoagulated blood was mixed with 300 μL of prewarmed isotonic saline that contained the test compound or a vehicle control (0.1% DMSO) and incubated at 37 °C for 3 min under continuous stirring. Aggregation was triggered by adding collagen (final concentration: 1.6 µg/mL). Platelet activity was monitored for 6 min. Multiplate V2.04 software calculated the area under the curve (AUC) for each measurement to determine average platelet response.

[H]/N=C(\N)NN=Cc1c(Cl)cncc1Cl [JP-14, (E)-2-((3,5-Dichloropyridin-4-yl)Methylene)Hydrazine-1-Carboximidamide]
effect on steatosis under TAAR1 blockade (3T3-L1 adipocytes [1]; 10 µM + RTI-7470-44 (40 nM)): abolished | steatosis (neutral lipid accumulation) (3T3-L1 adipocytes [1]; 10 µM, vs vehicle): statistically significant decrease | effect on phospholipidosis under TAAR1 blockade (3T3-L1 adipocytes [2]; 10 µM + RTI-7470-44 (40 nM)): reversed | phospholipidosis (phospholipid accumulation) (3T3-L1 adipocytes [2]; 10 µM, vs vehicle): significantly reduced | reduction of the effect of JP-14 on gastric emptying by RTI-7470-44 (C57BL/6 mice; JP-14 10 mg/kg + RTI-7470-44 5 mg/kg b.w.): about 40% | percentage inhibition of gastric emptying (C57BL/6 mice; JP-14 10 mg/kg b.w. combined with RTI-7470-44 5 mg/kg b.w.): about 25% | percentage inhibition of gastric emptying (C57BL/6 mice; intragastric, 10 mg/kg b.w.): about 66% | cellular metabolic function, percentage relative to control (live cells) (HEPG2 cell line; Table S4, 0.1 μM): 96% | cellular metabolic function, percentage relative to control (live cells) (HEPG2 cell line; Table S4, 1 μM): 101% | cellular metabolic function, percentage relative to control (live cells) (HEPG2 cell line; Table S4, 10 μM): 95% | cellular metabolic function, percentage relative to control (live cells) (HEPG2 cell line; Table S4, 50 μM): 71% | cellular metabolic function, percentage relative to control (live cells) (HEPG2 cell line; Table S4, 100 μM): 60% | effect on collagen-induced platelet aggregation [3]: did not alter; also recorded: did not influence
